This is an account of results in patent US9067974B2, “Polymyxin derivatives and uses thereof” (priority 2006, dated 2015).

One experiment deals with E. coli IH3080 (K1:O18). Put plainly: Well diffusion growth inhibition on LB agar plates (direct antibacterial activity). Format: cell-based, Escherichia coli. As for the experimental part: Peptides synthesized in Example 1, all carrying at least two (2) but not more than three (3) positive charges, were studied for their ability to inhibit the growth of E. coli. This was tested employing LB agar (LB Agar Lennox, Difco, BD, Sparks, Md., U.S.A) plates. The indicator organism E. coli IH3080 (K1:O18) was an encapsulated strain originally isolated from a neonate suffering from meningitis (Vaara et al. 1984) and obtained from National Public Health Institute, Helsinki, Finland.
(§1) From an overnight-grown culture of IH3080 on LB agar, a suspension of approx. 10^8 cells/ml was prepared in 0.9% NaCl. Aliquots of this suspension were then pipetted on the agar plates and the plates were gently shaken to spread the suspension evenly on the entire surface of the plate. Thereafter, the unabsorbed part of the suspension was removed by using a Pasteur pipette. After the surface had dried, small wells (diameter, 2 mm) were drilled on the plates (five wells per plate) by using a sterile sharp-edged narrow metal tube, single-use pipette tip, and vacuum suction. […] Controls included 0.9% NaCl solution without the compound to be tested. The plates were then incubated for 18 h at 37° C. whereafter the diameters of growth inhibition zones around each well were measured; the diameter of the well itself was not reduced. Finally, the diameters were converted to surface areas of growth inhibition (in square mm).

The subject of a further experiment is E. coli IH3080. Put plainly: Sensitization to rifampin: well diffusion growth inhibition on LB plates containing rifampin. Format: cell-based, Escherichia coli. Here is the method:
as §1

The mark [1] stands for this setting: 4 μg of compound, rifampin 0 μg/ml.
[2] abbreviates: 4 μg of compound, rifampin 0.1 μg/ml.
Setting [3] is: 4 μg of compound, rifampin 1.0 μg/ml.

As for “MHA-Thr-Abu-cy[Dab-Dab-DPhe-Leu-Dab-Dab-Thr-] [NAB 706]”, the “Antibacterial activity (growth inhibition area around a well)” value is reported as 5 square millimeters in the experiment on E. coli IH3080 (K1:O18) (4 μg of compound per well) and 7 square millimeters with E. coli IH3080 (K1:O18) (10 μg of compound per well). For the same compound, the “Antibacterial activity in the presence of rifampin (growth inhibition area around a well)” value in the experiment with E. coli IH3080 (setting [1]) turned out to be 5 square millimeters; in the experiment on E. coli IH3080 (setting [2]) it was 79 square millimeters; in the experiment on E. coli IH3080 (setting [3]), 133 square millimeters.

As to “OA-Thr-Abu-cy[Dab-Lys-DPhe-Leu-Dab-Dab-Thr-] [NAB 731]”, the “Antibacterial activity (growth inhibition area around a well)” value in the experiment with E. coli IH3080 (K1:O18) (4 μg of compound per well) and in the experiment on E. coli IH3080 (K1:O18) (10 μg of compound per well) was 0 square millimeters throughout. The “Antibacterial activity in the presence of rifampin (growth inhibition area around a well)” value with E. coli IH3080 (setting [1]) is on record as 0 square millimeters; with E. coli IH3080 (setting [2]), 0 square millimeters; with E. coli IH3080 (setting [3]) it was 5 square millimeters; in the experiment on E. coli IH3080 (10 μg of compound, rifampin 1.0 μg/ml), 22 square millimeters.

For the compound Deacylcolistin [reference compound], the “Antibacterial activity (growth inhibition area around a well)” value came out at 79 square millimeters with E. coli IH3080 (K1:O18) (4 μg of compound per well) and 95 square millimeters in the experiment with E. coli IH3080 (K1:O18) (10 μg of compound per well). Besides, the “Antibacterial activity in the presence of rifampin (growth inhibition area around a well)” value was 79 square millimeters in the experiment on E. coli IH3080 (setting [1]), 87 square millimeters in the experiment on E. coli IH3080 (setting [2]) and 127 square millimeters in the experiment with E. coli IH3080 (setting [3]).

With “MHA-Dab-Thr-Dab-cy[Dab-Dab-DPhe-Leu-Abu-Abu-Thr-] [NAB 721]”, the “Antibacterial activity (growth inhibition area around a well)” value with E. coli IH3080 (K1:O18) (4 μg of compound per well) and with E. coli IH3080 (K1:O18) (10 μg of compound per well) was 0 square millimeters throughout. Besides, the “Antibacterial activity in the presence of rifampin (growth inhibition area around a well)” value in the experiment with E. coli IH3080 (setting [1]) came to 0 square millimeters; with E. coli IH3080 (setting [2]), 13 square millimeters; in the experiment on E. coli IH3080 (setting [3]), 28 square millimeters.

As for “Polymyxin B heptapeptide [reference compound]”, the “Antibacterial activity (growth inhibition area around a well)” value with E. coli IH3080 (K1:O18) (4 μg of compound per well) and in the experiment on E. coli IH3080 (K1:O18) (10 μg of compound per well) was 0 square millimeters each time. Besides, the results for the “Antibacterial activity in the presence of rifampin (growth inhibition area around a well)” value in the experiment with E. coli IH3080 (setting [1]), in the experiment on E. coli IH3080 (setting [2]) and in the experiment with E. coli IH3080 (setting [3]) were 0 square millimeters, 0 square millimeters and 38 square millimeters, respectively.

In the case of Deacylpolymyxin B [reference compound], the “Antibacterial activity (growth inhibition area around a well)” value with E. coli IH3080 (K1:O18) (4 μg of compound per well) is 57 square millimeters; with E. coli IH3080 (K1:O18) (10 μg of compound per well), 113 square millimeters. Further, the “Antibacterial activity in the presence of rifampin (growth inhibition area around a well)” value with E. coli IH3080 (setting [1]) is given as 57 square millimeters; in the experiment on E. coli IH3080 (setting [2]) it was 79 square millimeters; in the experiment with E. coli IH3080 (setting [3]), 127 square millimeters.

On to `CO[C@H]1/C=C/O[C@@]2(C)Oc3c(C)c(O)c4c(O)c(c(/C=N/N5CCN(C)CC5)c(O)c4c3C2=O)NC(=O)/C(C)=C\C=C\[C@H](C)[C@H](O)[C@@H](C)[C@@H](O)[C@@H](C)[C@H](OC(C)=O)[C@@H]1C` [rifampin, reference compound], for which the “Concentration of rifampin needed for the inhibitory effect in the absence of the compounds tested” value with E. coli IH3080 (LB plates) came to 10 µg/mL.

As to “OA-DAla-DAla-cy[Dab-Dab-DPhe-Leu-Dab-Dab-Thr-] [NAB 733]”, the “Antibacterial activity (growth inhibition area around a well)” value in the experiment with E. coli IH3080 (K1:O18) (4 μg of compound per well) and in the experiment with E. coli IH3080 (K1:O18) (10 μg of compound per well) was 0 square millimeters throughout. Further, the “Antibacterial activity in the presence of rifampin (growth inhibition area around a well)” value in the experiment with E. coli IH3080 (setting [1]) came to 0 square millimeters; in the experiment with E. coli IH3080 (setting [2]), 95 square millimeters; with E. coli IH3080 (setting [3]), 113 square millimeters.

As for “OA-Abu-cy[Dab-Dab-DPhe-Leu-Dab-Dab-Thr-] [NAB 713]”, the “Antibacterial activity (growth inhibition area around a well)” value with E. coli IH3080 (K1:O18) (4 μg of compound per well) and in the experiment with E. coli IH3080 (K1:O18) (10 μg of compound per well) was 0 square millimeters throughout. For the same compound, the figures for the “Antibacterial activity in the presence of rifampin (growth inhibition area around a well)” value in the experiment with E. coli IH3080 (setting [1]), in the experiment with E. coli IH3080 (setting [2]) and with E. coli IH3080 (setting [3]) were 0 square millimeters, 20 square millimeters and 38 square millimeters, respectively.

For “OA-Thr-Abu-cy[Dab-Dab-DPhe-Leu-Dab-Abu-Thr-] [NAB 709]”, the “Antibacterial activity (growth inhibition area around a well)” value in the experiment with E. coli IH3080 (K1:O18) (4 μg of compound per well) and in the experiment on E. coli IH3080 (K1:O18) (10 μg of compound per well) was 0 square millimeters each time. For the same compound, the results for the “Antibacterial activity in the presence of rifampin (growth inhibition area around a well)” value in the experiment with E. coli IH3080 (setting [1]), with E. coli IH3080 (setting [2]) and in the experiment with E. coli IH3080 (setting [3]) were 0 square millimeters, 0 square millimeters and 13 square millimeters, respectively.

“OA-Thr-Abu-cy[Dab-Abu-DPhe-Leu-Dab-Dab-Thr-] [NAB 710]”: the entries for the “Antibacterial activity (growth inhibition area around a well)” value in the experiment with E. coli IH3080 (K1:O18) (4 μg of compound per well) and in the experiment on E. coli IH3080 (K1:O18) (10 μg of compound per well) were 0 square millimeters and 7 square millimeters, respectively. Besides, the “Antibacterial activity in the presence of rifampin (growth inhibition area around a well)” value came to 0 square millimeters in the experiment on E. coli IH3080 (setting [1]), 7 square millimeters in the experiment on E. coli IH3080 (setting [2]) and 13 square millimeters in the experiment with E. coli IH3080 (setting [3]).

Turning to “OA-Thr-Dab-cy[Dab-Abu-DPhe-Leu-Dab-Dab-Thr-] [NAB 715]”, the “Antibacterial activity (growth inhibition area around a well)” value with E. coli IH3080 (K1:O18) (4 μg of compound per well) and in the experiment on E. coli IH3080 (K1:O18) (10 μg of compound per well) was 0 square millimeters in each case. In addition, the “Antibacterial activity in the presence of rifampin (growth inhibition area around a well)” value was 0 square millimeters in the experiment with E. coli IH3080 (setting [1]), 0 square millimeters in the experiment on E. coli IH3080 (setting [2]) and 33 square millimeters with E. coli IH3080 (setting [3]).

As for “MHA-Abu-Thr-Abu-cy[Dab-Dab-DPhe-Leu-Dab-Dab-Thr-] [NAB 707]”, the “Antibacterial activity (growth inhibition area around a well)” value in the experiment on E. coli IH3080 (K1:O18) (4 μg of compound per well) turned out to be 5 square millimeters; with E. coli IH3080 (K1:O18) (10 μg of compound per well), 7 square millimeters. For the same compound, the entries for the “Antibacterial activity in the presence of rifampin (growth inhibition area around a well)” value in the experiment with E. coli IH3080 (setting [1]), in the experiment on E. coli IH3080 (setting [2]) and in the experiment on E. coli IH3080 (setting [3]) were 5 square millimeters, 87 square millimeters and 113 square millimeters, respectively.
